{"source": "patent US10322998B2", "about": "“Heterogeneous foldamers containing α, β, and/or γ-amino acids” (WISCONSIN ALUMNI RESEARCH FOUNDATION, priority 2002, dated 2019)", "assay": "Solubility, qualitative observations during synthesis and characterisation", "data": [{"smiles": "CC(C)(CNC(=O)[C@H]1CC[C@H](NC(=O)[C@H]2CC[C@H](NC(=O)Cc3ccccc3)C2)C1)NC(=O)[C@H]1CCCN1C(=O)[C@H]1CC[C@H](NC(=O)[C@H]2CC[C@H](NC(=O)C(C)(C)C)C2)C1", "note": "[compound 3]", "values": [{"measurement": "solubility in CD2Cl2", "setting": "CD2Cl2", "value": "nearly insoluble"}]}, {"smiles": "CC(=O)NC1CCCC1C(=O)N[C@@H](Cc1ccccc1)C(=O)NC1CCCC1C(=O)N[C@@H](Cc1ccccc1)C(=O)NC1CCCC1C(=O)N[C@@H](Cc1ccccc1)C(N)=O", "note": "(stereo partly shown) [Peptide 42]", "values": [{"measurement": "solubility in common solvents", "setting": "crude compound, water, methanol, acetonitrile, acetone, ethyl acetate, methylene chloride, DMSO", "value": "insoluble"}]}, {"smiles": "COC(=O)[C@H]1CC[C@H](NC(=O)[C@H]2CC[C@H](NC(=O)[C@H]3CC[C@H](NC(=O)[C@H]4CC[C@H](NC(=O)OC(C)(C)C)C4)C3)C2)C1", "note": "[Compound 7]", "values": [{"measurement": "solubility in other solvents", "setting": "solvents other than 1:1 CDCl3:CD3OD", "value": "poor solubility"}]}, {"smiles": "CC(C)[C@@H](NC(=O)OC(C)(C)C)C(=O)N[C@@H]1CCCC[C@H]1C(=O)N[C@@H](C(=O)N[C@@H]1CCCC[C@H]1C(=O)OCc1ccccc1)C(C)C", "note": "[2-28, Boc-D-Val-ACHC-D-Val-ACHC-Olin]", "values": [{"measurement": "solubility in organic solvents", "setting": "organic solvents, crude product", "value": "poor solubility"}]}]}
